Legend:
OsNF-YA4 = OsNF-YA4 gene expression in response to ABA treatment (qRT-PCR); assay type: in vivo, rice (Oryza sativa); conditions: short-term treatment (24 hours) with 10 and 100 μM ABA, NT rice plant, compared to untreated control group
Method: (§1) To analyze expression patterns of OsNF-YA4 and OsNF-YA7 gene in response to abiotic stress, non-transgenic rice plants (NT plants; breed—“Nakdong”) were grown in soil for 4 week in green house. The whole plant of a 4-week old non-transgenic plant was air-dried for 3 hrs for drought stress treatment. For the treatment of salt stress, whole plants were transferred to a solution containing 200 mM of NaCl and kept for 24 hours. For the treatment of low temperature stress, whole plants were transferred to a 4° C. low temperature chamber and kept for 24 hrs. For the analysis of OsNF-YA4 and OsNF-YA7 gene expression pattern in response to ABA, NT plant were grown in MS media for 2 week in growth chamber. For the short-term treatment with ABA, the whole plants were transferred to a solution containing 10 or 100 μM ABA and treated with the solution for 24 hours. For the long-term treatment with ABA, NT plant seeds were planted and grown on MS media supplemented with 0, 0.5, 1 or 3 μM of ABA for 2 weeks.
(§2) Leaf and root tissues of a plant which has been treated with either abiotic stress or absicic acid were collected and frozen. […] To analyze the gene expression level, quantitative PCR was carried out by using Mx3000p real-time PCR machine and Platinum® SYBR® Green qPCR SuperMix-UDG system (Invitrogen, USA). […]

OsNF-YA7 = OsNF-YA7 gene expression in response to ABA treatment (qRT-PCR); assay type: in vivo, rice (Oryza sativa); conditions: short-term treatment (24 hours) with 10 and 100 μM ABA, NT rice plant, compared to untreated control group
Method: as §1, §2

**Q.** With `CC1=CC(=O)CC(C)(C)[C@@]1(O)/C=C/C(C)=C\C(=O)O` [ABA, Abscisic acid] as the molecule, how does the “increase in OsNF-YA4 expression level” value (OsNF-YA4) read?
**A.** Its value is 4 fold.

**Q.** What about the “decrease in OsNF-YA7 expression level” value (OsNF-YA7) of the same molecule?
**A.** Its value is “approximately 30%”.
